Source: US7074807B2, “Compositions and methods for inducing cell death” (Georgetown University, priority 1998, dated 2006)

Assays:
ERK1 = ERK1 activity (MBP phosphorylation of ERK1 immunoprecipitates); assay type: cell-based, human; settings: 10 mM, 2 h, MDA-MB 231 cells
Experimental: FIGS. 4A, 4B. Tempol stimulates ERK1 activity. […] WCL (1 mg) were immunoprecipitated with agarose-conjugated anti-ERK1 antibody, and in vitro MBP phosphorylation assay was performed as described in experimental procedures. The incorporation of γ^32P into MBP was determined in a filter binding assay 4A. In other independent experiments, the reaction products were electrophoresed on 15% SDS-PAGE and MBP (at ˜18 kDa) was visualized by autoradiography 4B. Cont/Control, cells grown overnight in serum-free medium, and treated with 1% ethanol for 2 h.
ERK and SAPK/JNK Activities—Whole cell lysates prepared as described above were immunoprecipitated (1 mg) with an agarose conjugated anti-ERK1 antibody or an agarose conjugated anti-JNK1 antibody for 2 h at 4° C. with constant agitation. The immune-complexes were washed 3 times in lysis buffer and once in KBB as mentioned earlier. ERK or JNK activity assay was carried out according to manufacturer's procedures (UBI). […] The radioactive filters were washed and counted as described above. […] The radiolabeled GST-cJun fusion protein was detected by autoradiography.

MDA-MB 231 cells = assay: Ceramide generation assay (DAG kinase assay); assay type: cell-based, human; settings: 10 mM
Experimental: FIG. 8. Ceramide production in tempo-treated MDA-MB 231 cells. Logarithmically growing cells were cultured in serum-free medium overnight in 60 mm dishes, and treated with tempol (10 mM) and tempo (10 mM) for indicated times, followed by lipid extraction, and quantitation of ceramide by DAG kinase assay as described in experimental procedures. The organic phase extract containing the [γ^32P]-labeled ceramide was quantitated. Control cells were grown overnight in serum-free medium, followed by treatment with 1% ethanol for various times ranging from 0.5 h to 2 h. Tempol/tempo treatment values shown are the mean±s.d. of triplicate determinations, the value at each time point normalized to control (100%).
Ceramide Generation Assay—Ceramide production in MDA-MB 231 cells was determined by diacylglycerol (DAG) kinase assay according to a previously described procedure (Haimovitz-Friedman, A. et al., 1994, J. Exp. Med. 180, 525–535; Dressler, K. A. and Kolesnick, R. N., 1990, J. Biol. Chem. 265, 14917–14921). Briefly, MDA-MB 231 cells were split (1:2), and after 24 h, the cells were washed twice with PBS and serum-free medium was added, followed by incubation for additional 24 h. The cells (˜2×10^6/60 mm dish) were treated with tempo (10 mM) or tempol (10 mM) for various times. Following treatment, floating cells were collected and pelleted by centrifugation for 10 min at 1200 rpm, and attached cells were collected by scraping. Lipids were extracted from all cells (floating and attached) by incubation in 1 ml 100% ice-cold methanol. After a partial purification with chloroform, the extracted lipid in the organic phase was dried under N2 and was treated with a mild alkaline solution (0.1 N KOH in methanol) for 1 h at 37° C. to remove glycerolphospholipids. […] The spot containing the ceramide-1-phosphate was visualized by autoradiography, and the incorporated ^32P was removed by scraping, and quantified by Cerenkov counting. […]

| Structure (SMILES) | increase in the enzymatic activity of ERK1 (ERK1) | increase over control in ceramide level (MDA-MB 231 cells; 30 min, control normalized to 100%) | ceramide level over control (MDA-MB 231 cells; 1 h, control normalized to 100%) | level of ceramide generated compared to control cells (MDA-MB 231 cells; all time points) |
| --- | --- | --- | --- | --- |
| CC1(C)CCCC(C)(C)N1[O] [tempo, 2,2,6,6-tetramethylpiperidine-N-oxyl] | no change in ERK1 activity | 54% | 71% | – |
| CC1(C)CC(O)CC(C)(C)N1[O] [tempol, 4-hydroxy-tempo, reference compound] | Approximately 3 fold | – | – | not significantly higher |
